# From patent US6939303B2, “Method and system of determining cardiac contractility” (Provecto Tecnico R-2000, Ca, priority 1999, dated 2005)
# Several values for one entry are separate records, joined by “and”; a condition that tells them apart may be missing. Equal entries are not always repeated. Where two headings read alike, the source gives them in different places.
# Tests used:
# [1] = tested on: Conscious Dogs; experiment: Contractile state with dobutamine and verapamil, data of Little et al. (Example 12); type: in vivo, dog; settings: for Method of This Invention Avg. Value: Example 12, animals, control 100.0; for Change in contractile state, method of this invention: dogs
# Procedure: (§1) The capability of the method of the present invention to assess cardiac contractility was evaluated using data from several experiments published in the literature and suitable for analysis. In this approach, afterload in the method was expressed as systolic pressure. Since different methodologies to measure cardiac contractility were used, the comparison between them was attained by analyzing the amount of changes (delta values) and were statistically treated using paired t test, ANOVA, correlation, and agreement between methods when applicable, as, for example, described in Lancet, Vol. 1, pages 307 to 310 (1986) by Bland et al.
# Cardiovascular data was utilized from “Response of the Left Ventricular End-Systolic Pressure-Volume Relation in Conscious Dogs to a Wide Range of Contractile States,” Circulation, Vol. 78, pages 736 to 745 (1988) by Little et al. In this study, the contractile state was increased by dobutamine and decreased by verapamil.
# [2] = tested on: normal subjects; experiment: Cardiac contractility with methoxamine and dobutamine, echocardiographic data of Borow et al. (Example 4); type: in vivo, human; settings: ten normal subjects
# Procedure: as §1
# Cardiovascular data was utilized from “Sensitivity of End-Systolic Pressure-Dimension and Pressure-Volume Relations to the Inotropic State in Humans,” Circulation, Vol. 65, pages 988 to 997 (1982) by Borow et al. Ten normal subjects were studied echocardiographically.
# [3] = tested on: patients, most of them with coronary artery disease; experiment: Cardiac contractility under load or inotropic drugs, data of Takeuchi et al. (Examples 1 and 3); type: in vivo, human; parameters: key to C, cardiac contractility calculated with the method of this invention: relative contractility scale; control state C = 100; settings: for Alteration in cardiac contractility, method of this invention: change vs control
# Procedure: as §1
# Hemodynamic data was utilized from Takeuchi et al. (“Single-Beat Estimation of the Slope of the End-Systolic Pressure-Volume Relation in the Human Left Ventricle”. Circulation, Vol. 83, pages 202 to 212 (1991)).
# Initially, to calibrate the model of the method of this invention, the average normal (or control state) values were used: • Preload (end-diastolic volume)=70 (Pre_adj) • Afterload (Systolic pressure)=109 (After_adj) • Stroke volume (SV)=40 (SV_adj) • Cardiac contractility (C)=100 (C_adj) Thereafter, the C value in each case during angiotension infusion was calculated using its corresponding value of preload, afterload and stroke volume. For instance, for the first case receiving angiotenison, where:
# The first step was to obtain the edge value for the tetrahedron for the control state using the standard mathematical equation for the volume of a tetrahedron: Edge=^3{overscore (6*sv—adj)} Therefore, for the control state, Edge=^3{overscore (6*40)}=6.214465 The next step was to obtain the unitary (u) values of preload (pre_u) and afterload (after_u).
# Pre—u=68*(6.214465/70)=6.036908 [formula] In order to obtain the unitary (u) value of C, using the equation derived herein for cardiac contractility [formula] Therefore, the value of C (C_v) for Case 1 is: [formula] Thus, during angiotensin treatment, the corresponding C values for Cases 1 to 8 were calculated using the method of this invention to be as follows: […]
# Cardiovascular data was utilized from “Single-beat Estimation of the Slope of the End-Systolic Pressure-Volume Relation in the Human Left Ventricle,” Circulation, Vol. 83, pages 202 to 212 (1991) by Takeuchi et al. This study involved 25 patients, most of them with coronary artery disease. […] Hemodynamic modifications were measured with high-fidelity micromanometer and ventriculography. […] The increase in cardiac contractility using dobutamine induced changes measured by the method of this invention was 23% in comparison to the measurements made with ejection fraction of 15% and with ESP/ESV of 32%.
# [4] = tested on: patients, most of them with coronary artery disease; parameters: After_v, afterload (systolic pressure): unit not given beside the values; settings: cited from earlier work; for Alteration in cardiac contractility, ESP/ESV / Alteration in cardiac contractility, ejection fraction: change vs control
# [5] = tested on: Conscious Dogs; settings: cited from earlier work; for ESP/ESV Avg. Value / EF Avg. Value: Example 12, animals; for EF Avg. Value: ejection fraction; for Change in contractile state, ESP/ESV / Change in contractile state, dP/dt / Change in contractile state, ejection fraction: dogs
# [6] = tested on: normal subjects; settings: ten normal subjects; cited from earlier work
# [7] = tested on: Conscious Dog; experiment: Changes in preload, afterload and inotropic state, data of Mahler et al. (Example 13); type: in vivo; settings: for Method of This Invention Avg. Value: Example 13, animals, control 100.0; for Change, method of the present invention: conscious dog
# Procedure: as §1
# Cardiovascular data was utilized from “Effects of Changes in Preload, Afterload and Inotropic State on Ejection and Isovolumic Phase Measures of Contractility in the Conscious Dog,” Am. J. Cardiol., Vol. 35, pages 623 to 634 (1975) by Mahler et al. In this study, increase in preload was attained by Ringer's solution infusion, and rise of blood pressure with phenylephrine administration. […] The method of this invention was less sensitive than the other indices to measure changes in the inotropic state induced with isoproterenol or propranolol.
# [8] = tested on: Conscious Dog; settings: cited from earlier work; for Vcf Avg. Value (velocity of shortening) / dP/dT Avg. Value: Example 13, animals; for Change, Vcf / Change, dP/dt / Change, dP/dt DP40: conscious dog
# [9] = tested on: patients with coronary artery disease; experiment: Cardiac contractility with methoxamine and nitrates, data of Mehmel et al. (Example 6); type: in vivo, human; settings: load modifications
# Procedure: as §1
# Cardiovascular data was utilized from “The Linearity of the End-Systolic Pressure-Volume Relationship in Man and its Sensitivity for Assessment of Left Ventricular Function,” Circulation, Vol. 63, pages 1216 to 1222 (1981) by Mehmel et al. This study was performed in patients with coronary artery disease and with catheter-tip manometer and ventricular angiogram measurements.
# [10] = tested on: patients with coronary artery disease; settings: load modifications; cited from earlier work
# [11] = tested on: normal subjects and patients with coronary artery disease; settings: cited from earlier work
# [12] = tested on: normal subjects and patients with coronary artery disease; experiment: Cardiac contractility with phenylephrine, data of El-Tobgi et al. (Example 5); type: in vivo, human
# Procedure: as §1
# Cardiovascular data was utilized from “Left Ventricular Function in Coronary Artery Disease,” J. Am. Coll. Cardiol., Vol. 3, pages 781 to 788 (1984) by El-Tobgi et al. In this study, normal subjects (group I) were compared with two groups of patients with coronary artery disease (groups II and III, the last one with ventricular dysfunction) and studied with tip-manometer catheter and ventriculography measurements. In basal conditions, the method of this invention behaves similar to the ejection fraction in detecting depression in cardiac contractility in group III (−17.2% and −18.0%, respectively).
# [13] = tested on: patients with hyperthyroidism; settings: administration of propranolol; cited from earlier work
# [14] = tested on: patients with hyperthyroidism; experiment: Cardiac contractility with propranolol, data of Merillon et al. (Example 8); type: in vivo, human; settings: administration of propranolol
# Procedure: as §1
# Cardiovascular data was utilized from “Left Ventricular Function and Hyperthyroidism,” Br. Heart J., Vol. 46, pages 137 to 143 (1981) by Merillon et al. In patients with hyperthyroidism and invasive assessment of ventricular function, the administration of propranolol produced a fall in cardiac contractility. This change was similar when the inotropic state was assessed by means of P/V ratio (−28%), ejection fraction (−19%), dP/dt (−20%), and dP/dt/TP (−19%). Use of the method of the present invention gave a value for the change in cardiac contractility of −17%.
# [15] = group I (normal subjects), increase in blood pressure with phenylephrine
# [16] = group III (coronary artery disease with ventricular dysfunction), with the increase in blood pressure
molecule,measurement,setting,value
"CC(CCc1ccc(O)cc1)NCCc1ccc(O)c(O)c1 (stereo not drawn) [Dobutamine, dobutamine]",Method of This Invention Avg. Value,[1],111.7
same,"Change in contractile state, method of this invention",[1],11.7%
same,"Change in cardiac contractility, method of this invention",[2],27.5%
same,"Alteration in cardiac contractility, method of this invention",[3],23%
same,"Alteration in cardiac contractility, ESP/ESV",[4],32%
same,"Alteration in cardiac contractility, ejection fraction",[4],15%
same,ESP/ESV Avg. Value,[5],18.5 mm Hg per ml
same,EF Avg. Value,[5],54.8 percentage
same,"Change in contractile state, ESP/ESV",[5],150%
same,"Change in contractile state, dP/dt",[5],34.1%
same,"Change in contractile state, ejection fraction",[5],17.1%
same,"Change in cardiac contractility, ESP/ESV",[6],57.6%
same,"Change in cardiac contractility, ejection fraction",[6],12.8%
"CC(C)NCC(O)c1ccc(O)c(O)c1 (stereo not drawn) [Isoproterenol, isoproterenol]",Method of This Invention Avg. Value,[7],120.3
same,"Change, method of the present invention",[7],20.3%
same,Vcf Avg. Value (velocity of shortening),[8],2.83 circulation per second
same,dP/dT Avg. Value,[8],5430 mm Hg per second
same,"Change, Vcf",[8],53%
same,"Change, dP/dt",[8],55%
same,"Change, dP/dt DP40",[8],56%
"COc1ccc(OC)c(C(O)C(C)N)c1 (stereo not drawn) [Methoxamine, methoxamine]","Change in cardiac contractility, method of this invention",[9],3.3%
same,"Change in cardiac contractility, method of this invention",[2],1.4%
same,Change measured using ejection fraction,[10],−5.0%
same,"Change in cardiac contractility, ejection fraction",[6],−10.4%
O=[N+]([O-])O [Nitrate],"Change in cardiac contractility, method of this invention",[9],−1.7%
same,Change measured using ejection fraction,[10],5.0%
"O=[N+]([O-])OCC(CO[N+](=O)[O-])O[N+](=O)[O-] [Nitroglycerin, nitroglycerin]","Alteration in cardiac contractility, method of this invention",[3],−4%
same,"Alteration in cardiac contractility, ESP/ESV",[4],9%
same,"Alteration in cardiac contractility, ejection fraction",[4],8.3%
"CNC[C@H](O)c1cccc(O)c1 [Phenylephrine, phenylephrine]",Method of This Invention Avg. Value,[7],100.8
same,"Change, method of the present invention",[7],0.8%
same,EF Avg. Value,"[11]; Example 5, CAD + VD",50.5 percentage
same,ESP/ESV Avg. Value,"[11]; Example 5, CAD + VD",5.0 mm Hg per ml
same,EF Avg. Value,"[11]; Example 5, CAD",64.0 percentage
same,ESP/ESV Avg. Value,"[11]; Example 5, CAD",9.9 mm Hg per ml
same,EF Avg. Value,"[11]; Example 5, Healthy",67.5 percentage
same,ESP/ESV Avg. Value,"[11]; Example 5, Healthy",10.4 mm Hg per ml
same,Change in ejection fraction,[11]; [15],−0.1%
same,Fall in ESP/ESV,[11]; [16],−51.9%
same,Fall in ejection fraction,[11]; [16],−25.3%
same,Vcf Avg. Value (velocity of shortening),[8],1.61 circulation per second
same,dP/dT Avg. Value,[8],3670 mm Hg per second
same,"Change, Vcf",[8],−26%
same,"Change, dP/dt",[8],−2%
same,"Change, dP/dt DP40",[8],2%
same,Method of This Invention Avg. Value,"[12]; Example 5, CAD",107.3
same,Method of This Invention Avg. Value,"[12]; Example 5, CAD + VD",84.2
same,Method of This Invention Avg. Value,"[12]; Example 5, Healthy",110.4
same,"Change in cardiac contractility, method of the present invention",[12]; [15],10.4%
same,"Fall in cardiac contractility, method of this invention",[12]; [16],−15.8%
"CC(C)NCC(O)COc1cccc2ccccc12 (stereo not drawn) [Propranolol, propranolol]","Change in inotropic state, ESP/ESV",[13],−32%
same,"Change in inotropic state, P/V ratio",[13],−28%
same,"Change in inotropic state, dP/dt",[13],−20%
same,"Change in inotropic state, dP/dt/TP",[13],−19%
same,"Change in inotropic state, ejection fraction",[13],−19%
same,"Change in inotropic state, velocity of shortening",[13],−32%
same,"Change in cardiac contractility, method of the present invention",[14],−17%
same,Method of This Invention Avg. Value,[7],95.2
same,"Change, method of the present invention",[7],−4.8%
same,Vcf Avg. Value (velocity of shortening),[8],1.80 circulation per second
same,dP/dT Avg. Value,[8],3000 mm Hg per second
same,"Change, Vcf",[8],−18%
same,"Change, dP/dt",[8],−18%
same,"Change, dP/dt DP40",[8],−13%
"COc1ccc(CCN(C)CCCC(C#N)(c2ccc(OC)c(OC)c2)C(C)C)cc1OC (stereo not drawn) [Verapamil, verapamil]",Method of This Invention Avg. Value,[1],77.1
same,"Change in contractile state, method of this invention",[1],−23%
same,ESP/ESV Avg. Value,[5],5.1 mm Hg per ml
same,EF Avg. Value,[5],39.2 percentage
same,"Change in contractile state, ESP/ESV",[5],−38.5%
same,"Change in contractile state, dP/dt",[5],−39.9%
same,"Change in contractile state, ejection fraction",[5],−10.9%
angiotensin,"Alteration in cardiac contractility, method of this invention",[3],0.4%
same,"C, cardiac contractility calculated with the method of this invention","[3]; individual cases 1 to 8 during angiotensin treatment, one line per case, control state C=100",115.24 and 63.33 and 95.99 and 88.76 and 100.71 and 116.54 and 73.04 and 117.72
same,"Alteration in cardiac contractility, ESP/ESV",[4],9.1%
same,"Alteration in cardiac contractility, ejection fraction",[4],−10.3%
same,"SV_v, stroke volume","[4]; individual cases 1 to 8 receiving angiotensin, one line per case, control mean 40",41 and 38 and 30 and 34 and 40 and 50 and 36 and 60
same,"Pre_v, preload (end-diastolic volume)","[4]; individual cases 1 to 8 receiving angiotensin, one line per case, control mean 70",68 and 119 and 66 and 78 and 79 and 82 and 95 and 93
same,"After_v, afterload (systolic pressure)","[4]; individual cases 1 to 8 receiving angiotensin, one line per case, control mean 109",142 (2×) and 155 and 176 and 164 and 156 and 145 and 125
